“And” between values parts separate entries of the source, which are not always exact repeats. Identical values can stand only once. Inconclusive results and toxic doses are left out. Rule as the data show it: active = T/C of 150% or more; inactive = T/C below 125%.
Tested on: L1210 leukemia ip in BDF1 mice, survival T/C
Assay: NCI In Vivo Anticancer Drug Screen. Data for tumor model L1210 Leukemia (intraperitoneal) in B6D2F1 (BDF1) mice
Conditions: higher = longer survival
How it was run: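 In this screen, tumor-bearing mice given compound are compared to those given vehicle, and their survival values are reported as a treated-to-control quotient.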

[1] = endpoint: mean survival time, dose: 25.0 mg/kg/injection, schedule: Q04DX003 (ip), vehicle: saline
[2] = endpoint: mean survival time, dose: 50.0 mg/kg/injection, schedule: Q04DX003 (ip), vehicle: saline
[3] = endpoint: mean survival time, dose: 100.0 mg/kg/injection, schedule: Q01DX009 (ip), vehicle: Klucel (hydroxypropylcellulose) (HPC)
[4] = endpoint: mean survival time, dose: 200.0 mg/kg/injection, schedule: Q01DX009 (ip), vehicle: Klucel (hydroxypropylcellulose) (HPC)
[5] = endpoint: mean survival time, dose: 400.0 mg/kg/injection, schedule: Q01DX009 (ip), vehicle: Klucel (hydroxypropylcellulose) (HPC)

Measured: T/C

CN(N=O)C(=O)N[C@@H](C=O)[C@@H](O)[C@H](O)[C@H](O)CO
inactive: endpoint: mean survival time, dose: 0.5 mg/kg/injection, schedule: Q03HX040 (ip), vehicle: other 94 % of control | endpoint: mean survival time, dose: 1.0 mg/kg/injection, schedule: Q03HX040 (ip), vehicle: other 98 % of control | endpoint: mean survival time, dose: 2.0 mg/kg/injection, schedule: Q03HX040 (ip), vehicle: other 92 % of control | endpoint: mean survival time, dose: 2.3 mg/kg/injection, schedule: Q01DX009 (ip), vehicle: other 96 % of control and 101 % of control | endpoint: mean survival time, dose: 4.0 mg/kg/injection, schedule: Q03HX040 (ip), vehicle: other 104 % of control | endpoint: mean survival time, dose: 4.5 mg/kg/injection, schedule: Q01DX009 (ip), vehicle: other 92 % of control and 105 % of control | endpoint: mean survival time, dose: 8.0 mg/kg/injection, schedule: Q03HX040 (ip), vehicle: other 112 % of control | endpoint: mean survival time, dose: 8.0 mg/kg/injection, schedule: Q## X009 (ip), vehicle: other 98 % of control | endpoint: mean survival time, dose: 9.0 mg/kg/injection, schedule: Q01DX009 (ip), vehicle: other 99 % of control and 111 % of control | endpoint: mean survival time, dose: 12.5 mg/kg/injection, schedule: Q01DX009 (ip), vehicle: saline 101 % of control and 107 % of control | endpoint: mean survival time, dose: 12.5 mg/kg/injection, schedule: Q01DX009 (ip), vehicle: water 104 % of control | endpoint: mean survival time, dose: 16.0 mg/kg/injection, schedule: Q01DX017 (ip), vehicle: other 107 % of control | endpoint: mean survival time, dose: 16.0 mg/kg/injection, schedule: Q03HX040 (ip), vehicle: other 110 % of control | endpoint: mean survival time, dose: 16.0 mg/kg/injection, schedule: Q## X009 (ip), vehicle: other 94 % of control | endpoint: mean survival time, dose: 17.0 mg/kg/injection, schedule: Q04DX002 (ip), vehicle: other 97 % of control and 113 % of control | endpoint: mean survival time, dose: 24.5 mg/kg/injection, schedule: Q01DX Z (ip), vehicle: water 112 % of control | endpoint: mean survival time, dose: 25.0 mg/kg/injection, schedule: Q01DX009 (ip), vehicle: other 120 % of control | endpoint: mean survival time, dose: 25.0 mg/kg/injection, schedule: Q01DX Z (ip), vehicle: water 115 % of control | [1] 96 % of control and 100 % of control | endpoint: mean survival time, dose: 32.0 mg/kg/injection, schedule: Q01DX001 (ip), vehicle: other 100 % of control | endpoint: mean survival time, dose: 32.0 mg/kg/injection, schedule: Q02DX009 (ip), vehicle: other 112 % of control | endpoint: mean survival time, dose: 32.0 mg/kg/injection, schedule: Q04DX005 (ip), vehicle: other 101 % of control | endpoint: mean survival time, dose: 32.0 mg/kg/injection, schedule: Q08DX003 (ip), vehicle: other 101 % of control | endpoint: mean survival time, dose: 32.0 mg/kg/injection, schedule: Q## X009 (ip), vehicle: other 112 % of control | endpoint: mean survival time, dose: 49.5 mg/kg/injection, schedule: Q01DX Z (ip), vehicle: water 120 % of control | endpoint: mean survival time, dose: 50.0 mg/kg/injection, schedule: Q01DX009 (ip), vehicle: citric acid 110 % of control | endpoint: mean survival time, dose: 50.0 mg/kg/injection, schedule: Q04DX002 (ip), vehicle: saline 104 % of control | [2] 105 % of control and 110 % of control | endpoint: mean survival time, dose: 64.0 mg/kg/injection, schedule: Q01DX001 (ip), vehicle: other 105 % of control | endpoint: mean survival time, dose: 64.0 mg/kg/injection, schedule: Q04DX005 (ip), vehicle: other 111 % of control | endpoint: mean survival time, dose: 64.0 mg/kg/injection, schedule: Q08DX003 (ip), vehicle: other 104 % of control | endpoint: mean survival time, dose: 67.0 mg/kg/injection, schedule: Q01DX009 (ip), vehicle: citric acid 116 % of control | endpoint: mean survival time, dose: 100.0 mg/kg/injection, schedule: Q01DX001 (ip), vehicle: other 103 % of control | endpoint: mean survival time, dose: 100.0 mg/kg/injection, schedule: Q01DX009 (ip), vehicle: citric acid 123 % of control and 124 % of control and 89 % of control | endpoint: mean survival time, dose: 100.0 mg/kg/injection, schedule: Q01DX009 (ip), vehicle: other 118 % of control | endpoint: mean survival time, dose: 100.0 mg/kg/injection, schedule: Q01DX Z (ip), vehicle: water 117 % of control | endpoint: mean survival time, dose: 100.0 mg/kg/injection, schedule: Q04DX002 (ip), vehicle: saline 120 % of control | endpoint: mean survival time, dose: 100.0 mg/kg/injection, schedule: Q04DX003 (ip), vehicle: saline 97 % of control | endpoint: mean survival time, dose: 128.0 mg/kg/injection, schedule: Q01DX001 (ip), vehicle: other 114 % of control | endpoint: mean survival time, dose: 128.0 mg/kg/injection, schedule: Q02DX009 (ip), vehicle: other 117 % of control | endpoint: mean survival time, dose: 128.0 mg/kg/injection, schedule: Q04DX005 (ip), vehicle: other 118 % of control | endpoint: mean survival time, dose: 128.0 mg/kg/injection, schedule: Q08DX003 (ip), vehicle: other 111 % of control | endpoint: mean survival time, dose: 138.0 mg/kg/injection, schedule: Q01DX009 (ip), vehicle: other 92 % of control | endpoint: mean survival time, dose: 150.0 mg/kg/injection, schedule: Q01DX009 (ip), vehicle: citric acid 90 % of control | endpoint: mean survival time, dose: 200.0 mg/kg/injection, schedule: Q01DX001 (ip), vehicle: other 122 % of control | endpoint: mean survival time, dose: 200.0 mg/kg/injection, schedule: Q04DX003 (ip), vehicle: saline 96 % of control and 97 % of control | endpoint: mean survival time, dose: 250.0 mg/kg/injection, schedule: Q01DX001 (ip), vehicle: citric acid 116 % of control | endpoint: mean survival time, dose: 256.0 mg/kg/injection, schedule: Q01DX001 (ip), vehicle: other 110 % of control | endpoint: mean survival time, dose: 256.0 mg/kg/injection, schedule: Q04DX005 (ip), vehicle: other 114 % of control | endpoint: mean survival time, dose: 256.0 mg/kg/injection, schedule: Q08DX003 (ip), vehicle: other 117 % of control | endpoint: mean survival time, dose: 300.0 mg/kg/injection, schedule: Q01DX001 (ip), vehicle: citric acid 118 % of control and 122 % of control | endpoint: mean survival time, dose: 300.0 mg/kg/injection, schedule: Q04DX002 (ip), vehicle: acid diluted with saline 93 % of control | endpoint: mean survival time, dose: 350.0 mg/kg/injection, schedule: Q01DX001 (ip), vehicle: citric acid 112 % of control | endpoint: mean survival time, dose: 400.0 mg/kg/injection, schedule: Q01DX001 (ip), vehicle: citric acid 111 % of control | endpoint: mean survival time, dose: 400.0 mg/kg/injection, schedule: Q01DX009 (ip), vehicle: saline 108 % of control | endpoint: mean survival time, dose: 400.0 mg/kg/injection, schedule: Q04DX002 (ip), vehicle: saline 93 % of control and 123 % of control | endpoint: mean survival time, dose: 518.0 mg/kg/injection, schedule: Q04DX002 (ip), vehicle: other 95 % of control | endpoint: median survival time, dose: 14.0 mg/kg/injection, schedule: Q01DX009 (ip), vehicle: Klucel (hydroxypropylcellulose) (HPC) 111 % of control | endpoint: median survival time, dose: 17.0 mg/kg/injection, schedule: Q01DX009 (ip), vehicle: water 108 % of control and 114 % of control | endpoint: median survival time, dose: 26.0 mg/kg/injection, schedule: Q01DX009 (ip), vehicle: water 104 % of control and 117 % of control | endpoint: median survival time, dose: 39.0 mg/kg/injection, schedule: Q01DX009 (ip), vehicle: Klucel (hydroxypropylcellulose) (HPC) 116 % of control | endpoint: median survival time, dose: 39.0 mg/kg/injection, schedule: Q01DX009 (ip), vehicle: water 111 % of control | endpoint: median survival time, dose: 87.0 mg/kg/injection, schedule: Q01DX009 (ip), vehicle: water 114 % of control | endpoint: median survival time, dose: 130.0 mg/kg/injection, schedule: Q01DX009 (ip), vehicle: water 86 % of control

O=C(COc1cccc([N+](=O)[O-])c1)Nc1ccc(S(=O)(=O)F)cc1
inactive: [3] 102 % of control | [4] 100 % of control | [5] 100 % of control

CCN(CC)CCn1c2ccccc2c2cnccc21
inactive: [1] 100 % of control | [2] 97 % of control

C=CCNc1ccnc(SC)n1
inactive: endpoint: mean survival time, dose: 100.0 mg/kg/injection, schedule: Q01DX001 (ip), vehicle: gum acacia 94 % of control | endpoint: mean survival time, dose: 200.0 mg/kg/injection, schedule: Q01DX001 (ip), vehicle: gum acacia 103 % of control

Cc1ccc(C(=O)/C(=C/c2ccccc2)c2ccccc2)cc1
inactive: [3] 101 % of control | endpoint: mean survival time, dose: 100.0 mg/kg/injection, schedule: Q04DX003 (ip), vehicle: Klucel (hydroxypropylcellulose) (HPC) 96 % of control | [4] 97 % of control | endpoint: mean survival time, dose: 200.0 mg/kg/injection, schedule: Q04DX003 (ip), vehicle: Klucel (hydroxypropylcellulose) (HPC) 93 % of control | [5] 88 % of control | endpoint: mean survival time, dose: 400.0 mg/kg/injection, schedule: Q04DX003 (ip), vehicle: Klucel (hydroxypropylcellulose) (HPC) 96 % of control

COc1ccc2c(c1)CCC(C)(C#N)C2=O (stereo not drawn)
inactive: endpoint: mean survival time, dose: 100.0 mg/kg/injection, schedule: Q01DX009 (ip), vehicle: saline sonified 91 % of control | endpoint: mean survival time, dose: 200.0 mg/kg/injection, schedule: Q01DX009 (ip), vehicle: saline sonified 96 % of control | endpoint: mean survival time, dose: 400.0 mg/kg/injection, schedule: Q01DX009 (ip), vehicle: saline sonified 90 % of control

O=C(COc1ccc(Cl)cc1)N(c1ccccc1)C1CCCCC1
inactive: [3] 96 % of control | [4] 96 % of control | [5] 94 % of control
